The text below walks through data of patent publication US20260256789A1, “METHODS FOR TREATMENT OF CANCER” (Frontier Medicines Corporation, priority 2022, published 2026).

Where only a bound is given, the exact number is not on record here.

T1 sequence (P01116 1-169 isoform P01116-2 G12C/C51S/C80L/C118S): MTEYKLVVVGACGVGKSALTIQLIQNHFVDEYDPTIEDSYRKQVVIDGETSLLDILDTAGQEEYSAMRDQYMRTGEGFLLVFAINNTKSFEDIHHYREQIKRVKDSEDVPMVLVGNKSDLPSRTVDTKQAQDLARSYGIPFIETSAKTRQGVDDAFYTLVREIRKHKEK

This test addresses T1, KRAS G12C (GMPPNP-loaded) and cRAF Ras-binding domain (Homo sapiens, UniProt P01116, C118S/C51S/C80L/G12C).
T1 construct: truncated version comprising amino acids 1-169
In words: Inhibition of KRAS G12C and cRAF binding (AlphaScreen). The settings on record: KRAS G12C preloaded with GTP analogue GMPPNP, 2 hours preincubation. From the text: The ability of compounds of Formula (A), Formula (B) and Formula (C), and pharmaceutically acceptable salts and/or isotopologues thereof, to inhibit activity of the GTP-bound form of KRAS G12C can be tested using methods such as the in vitro assay described in Example 179 below. Example 179 describes determining, for various compounds, the half-maximal inhibition (IC50) of KRAS G12C loaded with GTP analogue GMPPNP from binding to cRaf, as the Ras-binding domain (RBD). Example 180 describes determining, for various compounds, the half-maximal inhibition (IC50) of KRAS G12C loaded with GTP analogue GMPPNP from binding to PI3Kα, as the Ras-binding domain (RBD). Example 181 describes testing compounds for the ability to inhibit cell viability in MCF10A G12C/A59G mutant, which abrogates GTPase activity, thus preventing hydrolysis of GTP to GDP.
The AlphaScreen technology was used to determine IC50s for compound inhibition of KRAS G12C (present as the Cys-light (C51S, C80L and C118S), truncated version comprising amino acids 1-169) and cRAF interaction. Compounds were diluted in 100% DMSO and each compound concentration was spotted at 200 nl/well onto low volume, white 384 well plates. The KRAS G12C contained a biotin-AviTag and the cRaf, as Ras-binding domain (amino acids 50-131, RBD), was GST-tagged. KRAS G12C was preloaded with the GTP analogue Guanosine 5′-[β,γ-imido]triphosphate (GMPPNP). The KRAS G12C was diluted in 25 mM Hepes, pH 7.4, 150 mM NaCl, 5 mM MgCl2, 0.01% TritonX-100 and 10 μM GMPPNP and added at 10 ul/well to compound-spotted plates resulting in a DMSO concentration of 2%. Plates were incubated for 2 hours. A mixture of RBD and the AlphaScreen streptavidin donor and glutathione acceptor beads diluted in 25 mM Hepes, pH 7.4, 150 mM NaCl, 5 mM MgCl2, 0.01% TritonX-100 and 2% DMSO was then added at 10 ul/well and incubated for 60-90 minutes before the samples were read for emission at 570 nm after excitation of the donor beads at 680 nm. All incubations were performed at room temperature. The final top compound concentration was 50 μM with 1:3 titrations for 10-point dose response curves. Final assay conditions were 0.5 nM KRAS G12C, 0.75 nM RBD and 5 μg/ml each of AlphaScreen donor and acceptor beads. IC50s were determined using nonlinear regression fit of [inhibitor] vs. response (4 parameters). […]
For orientation: Bead proximity is the source of the signal in Alpha formats.
For the compound `Cc1noc(/C=C/C(=O)N2CC[C@@H](N(C)c3nc(OC[C@@]45CCCN4C[C@H](F)C5)nc4c(F)c(-c5nc(N)cc(C)c5C(F)(F)F)ncc34)C2)n1` [Example 55, (E)-1-((R)-3-((7-(6-amino-4-methyl-3-(trifluoromethyl)pyridin-2-yl)-8-fluoro-2-(((2R,7aS)-2-fluorotetrahydro-1H-pyrrolizin-7a(5H)-yl)methoxy)pyrido[4,3-d]pyrimidin-4-yl)(methyl)amino)pyrrolidin-1-yl)-3-(3-methyl-1,2,4-oxadiazol-5-yl)prop-2-en-1-one], the IC50 – broadly, the concentration that gives 50% inhibition – is less than 10 nM.
Next, `Cc1cc(N)nc(-c2ncc3c(N(C)[C@@H]4CCN(C(=O)/C=C/c5nc(C(C)(F)F)no5)C4)nc(OC[C@@]45CCCN4C[C@H](F)C5)nc3c2F)c1C(F)(F)F` [Example 56, (E)-1-((R)-3-((7-(6-amino-4-methyl-3-(trifluoromethyl)pyridin-2-yl)-8-fluoro-2-(((2R,7aS)-2-fluorotetrahydro-1H-pyrrolizin-7a(5H)-yl)methoxy)pyrido[4,3-d]pyrimidin-4-yl)(methyl)amino)pyrrolidin-1-yl)-3-(3-(1,1-difluoroethyl)-1,2,4-oxadiazol-5-yl)prop-2-en-1-one]: less than 10 nM; `C=CC(=O)N1CC[C@@H](N(C)c2nc(OC[C@@]34CCCN3C[C@H](F)C4)nc3c2C[C@@H](C)[C@H](c2nc(N)cc(C)c2C(F)(F)F)C3)C1` [Example 59, 1-((R)-3-(((6R,7R)-7-(6-amino-4-methyl-3-(trifluoromethyl)pyridin-2-yl)-2-(((2R,7aS)-2-fluorohexahydro-1H-pyrrolizin-7a-yl)methoxy)-6-methyl-5,6,7,8-tetrahydroquinazolin-4-yl)(methyl)amino)pyrrolidin-1-yl)prop-2-en-1-one]: 100 to 500 nM.
The compound `CC(C)c1noc(/C=C/C(=O)N2CC[C@@H](N(C)c3nc(OC[C@@]45CCCN4C[C@H](F)C5)nc4c(F)c(-c5nc(N)cc6cccc(Cl)c56)ncc34)C2)n1` [Example 60, (E)-1-((R)-3-((7-(3-amino-8-chloroisoquinolin-1-yl)-8-fluoro-2-(((2R,7aS)-2-fluorohexahydro-1H-pyrrolizin-7a-yl)methoxy)pyrido[4,3-d]pyrimidin-4-yl)(methyl)amino)pyrrolidin-1-yl)-3-(3-isopropyl-1,2,4-oxadiazol-5-yl)prop-2-en-1-one] returned an IC50 of less than 10 nM.
Turning to `CN(C)C/C=C/C(=O)N1CC[C@@H](N(C)c2nc(OC[C@@]34CCCN3C[C@H](F)C4)nc3c(F)c(-c4nc(N)cc5cccc(Cl)c45)ncc23)C1` [Example 61, (E)-1-((R)-3-((7-(3-amino-8-chloroisoquinolin-1-yl)-8-fluoro-2-(((2R,7aS)-2-fluorohexahydro-1H-pyrrolizin-7a-yl)methoxy)pyrido[4,3-d]pyrimidin-4-yl)(methyl)amino)pyrrolidin-1-yl)-4-(dimethylamino)but-2-en-1-one], the IC50 was 10 to 100 nM.
The compound `Cc1cc(N)nc(-c2ncc3c(N(C)[C@@H]4CCN(C(=O)/C=C/CN(C)C)C4)nc(OC[C@@]45CCCN4C[C@H](F)C5)nc3c2F)c1C(F)(F)F` [Example 62, (E)-1-((R)-3-((7-(6-amino-4-methyl-3-(trifluoromethyl)pyridin-2-yl)-8-fluoro-2-(((2R,7aS)-2-fluorohexahydro-1H-pyrrolizin-7a-yl)methoxy)pyrido[4,3-d]pyrimidin-4-yl)(methyl)amino)pyrrolidin-1-yl)-4-(dimethylamino)but-2-en-1-one] displayed a concentration for half-maximal inhibition (IC50) of 10 to 100 nM.
`Cc1cc(N)nc(-c2ncc3c(N(C)[C@@H]4CCN(C(=O)/C=C/c5nc(C6CC6)no5)C4)nc(OC[C@@]45CCCN4C[C@H](F)C5)nc3c2F)c1C(F)(F)F` [Example 63, (E)-1-((R)-3-((7-(6-amino-4-methyl-3-(trifluoromethyl)pyridin-2-yl)-8-fluoro-2-(((2R,7aS)-2-fluorotetrahydro-1H-pyrrolizin-7a(5H)-yl)methoxy)pyrido[4,3-d]pyrimidin-4-yl)(methyl)amino)pyrrolidin-1-yl)-3-(3-cyclopropyl-1,2,4-oxadiazol-5-yl)prop-2-en-1-one]: the IC50 was less than 10 nM.
`C=CC(=O)N1CC(CN(C)c2nc(OC[C@@]34CCCN3C[C@H](F)C4)nc3c(F)c(-c4nc(N)cc(C)c4C(F)(F)F)ncc23)C1` [Example 64, 1-(3-(((7-(6-amino-4-methyl-3-(trifluoromethyl)pyridin-2-yl)-8-fluoro-2-(((2R,7aS)-2-fluorotetrahydro-1H-pyrrolizin-7a(5H)-yl)methoxy)pyrido[4,3-d]pyrimidin-4-yl)(methyl)amino)methyl)azetidin-1-yl)prop-2-en-1-one]: the IC50 was 10 to 100 nM.
`Cc1noc(/C=C/C(=O)N2CC[C@@H](N(C)c3nc(OC[C@@]45CCCN4C[C@H](F)C5)nc4c3CC(C)C(c3nc(N)cc(C)c3C(F)(F)F)C4)C2)n1` (stereo partly drawn) [Example 65, (E)-1-((3R)-3-((7-(6-amino-4-methyl-3-(trifluoromethyl)pyridin-2-yl)-2-(((2R,7aS)-2-fluorohexahydro-1H-pyrrolizin-7a-yl)methoxy)-6-methyl-5,6,7,8-tetrahydroquinazolin-4-yl)(methyl)amino)pyrrolidin-1-yl)-3-(3-methyl-1,2,4-oxadiazol-5-yl)prop-2-en-1-one] showed an IC50 of less than 10 nM.
`CN(c1nc(OCC23CCCN2CCC3)nc2c(F)c(-c3nc(N)cc4cccc(Cl)c34)ncc12)[C@@H]1CCN(C#N)C1` [Example 66, (R)-3-((7-(3-amino-8-chloroisoquinolin-1-yl)-8-fluoro-2-((hexahydro-1H-pyrrolizin-7a-yl)methoxy)pyrido[4,3-d]pyrimidin-4-yl)(methyl)amino)pyrrolidine-1-carbonitrile] returned an IC50 of 10 to 100 nM.
Consider `C=CC(=O)N1CC(CN(C)c2nc(OC[C@@]34CCCN3C[C@H](F)C4)nc3c2CC(C)C(c2nc(N)cc(C)c2C(F)(F)F)C3)C1` (stereo partly drawn) [Example 67, 1-(3-(((7-(6-amino-4-methyl-3-(trifluoromethyl)pyridin-2-yl)-2-(((2R,7aS)-2-fluorohexahydro-1H-pyrrolizin-7a-yl)methoxy)-6-methyl-5,6,7,8-tetrahydroquinazolin-4-yl)(methyl)amino)methyl)azetidin-1-yl)prop-2-en-1-one], for which the half-inhibitory concentration (IC50) is not below 500 nM.
Compound `C=CC(=O)N1CC[C@@H](N(C)c2nc(OC[C@@]34CCCN3C[C@H](F)C4)nc3c2CC(C)C(c2nc(N)cc(C)c2C(F)(F)F)C3)C1` (stereo partly drawn) [Example 68, 1-((3R)-3-((7-(6-amino-4-methyl-3-(trifluoromethyl)pyridin-2-yl)-2-(((2R,7aS)-2-fluorohexahydro-1H-pyrrolizin-7a-yl)methoxy)-6-methyl-5,6,7,8-tetrahydroquinazolin-4-yl)(methyl)amino)pyrrolidin-1-yl)prop-2-en-1-one] showed an IC50 of 100 to 500 nM.
`C=CC(=O)N1CC[C@@H](N(C)c2nc(OCC34CCCN3CCC4)nc3c(F)c(-c4nc(N)cc5cccc(Cl)c45)ncc23)C1` [Example 69, (R)-1-(3-((7-(3-amino-8-chloroisoquinolin-1-yl)-8-fluoro-2-((hexahydro-1H-pyrrolizin-7a-yl)methoxy)pyrido[4,3-d]pyrimidin-4-yl)(methyl)amino)pyrrolidin-1-yl)prop-2-en-1-one] gave a half-maximal inhibitory concentration (IC50) of 100 to 500 nM.
